Data reported in patent US20040092515A1, “Diaminoquinazoline esters for use as dihydrofolate reductase inhibitors” (priority 2001, published 2004).

melting point | SMILES
223 to 227 °C | COc1cc(C(=O)OCc2ccc3nc(N)nc(N)c3c2)cc(OC)c1OC
195 to 197 °C | COc1ccc(OC)c(C(=O)OCc2ccc3nc(N)nc(N)c3c2)c1
